Test: Single-dose, dose escalation study Part 1: pharmacokinetics of plasma/urine cromolyn sodium (DSCG)
Assay type: in vivo
Conditions: human, plasma, inhaled, 40 mg
Description: This was a Phase 1, randomized, open-label, single-centre, dose-ranging, cross-over study conducted in two parts in total of 18 subjects. Part 1 was conducted in total of 12 healthy adult subjects of 18-45 years of age. Part 2 was conducted in a total of 5 adult patients of 18-45 years of age with systemic mastocytosis. Parts 1 and 2 were conducted in parallel.
40 mg PA-101 (4% DSCG, 40 mg/1 mL), oral inhalation via eFlow 30L. • 2. 80 mg PA-101 (4% DSCG, 80 mg/2 mL), oral inhalation via eFlow 30L. • 3. 40 mg PA-101 (4% DSCG, 40 mg/1 mL), oral inhalation via eFlow 40L. • 4. […] 200 mg oral sodium cromoglycate solution (commercially available product), oral administration. […] 40 mg PA-101 (4% DSCG 40 mg/1 mL), oral inhalation via eFlow 30L • 2. 200 mg oral sodium cromoglycate solution (commercially available product), oral administration. […]
Urine DSCG levels were measured for total DSCG excretion in the urine, and the bioavailability of the DSCG was calculated from the measured levels.
Pharmacokinetic parameters and plasma concentrations are listed and summarized. […] Analysis of variance (ANOVA) including terms for subject and treatment are used to calculate point estimates, and confidence intervals (CI) for treatment differences with respect to PK parameters (90% CI) are calculated.

O=C(O)c1cc(=O)c2c(OCC(O)COc3cccc4oc(C(=O)O)cc(=O)c34)cccc2o1 [cromolyn sodium]
AUC (40 mg dose using the 30L device (text repeat of Table 2, PA-101)): 338 ng·h/mL | AUC (40 mg dose using the 40L device (text repeat of Table 2, PA-101)): 212 ng·h/mL

— patent publication US9265749B2, “Methods for the treatment of systemic disorders treatable with mast cell stabilizers, including mast cell related disorders” (Patara Pharma, LLC, priority 2014, dated 2016)
